According to patent US8192962B2, “Processes for detecting toxic substances” (Daikin Industries, Ltd., priority 2001, dated 2012):

Test system: Transport facilitation protein genes
Assay: DNA chip mRNA expression in yeast, transport facilitation protein genes (Table 5)
Assay type: cell-based, Saccharomyces cerevisiae S288C
Summary of the method: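 Chemical exposure: 2 h, log-phase S. cerevisiae S288C, YPD, 25° C., dose set to inhibit growth without death. Profiling: mRNA labeled by reverse transcription with Cy3- or Cy5-dUTP, hybridized to whole-genome array. Output: fluorescence ratio against untreated culture.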

`CN(C)C(=S)SSC(=S)N(C)C` [(10), Tetramethylthiuram disulfide] was tested, and the “The level of expressed mRNA in the presence of chemical substance/The level of expressed mRNA in the absence of chemical substance” value (yeast gene YGR281W) was 1.4, the “The level of expressed mRNA in the presence of chemical substance/The level of expressed mRNA in the absence of chemical substance” value (yeast gene YHL035C) was 4.6 and the “The level of expressed mRNA in the presence of chemical substance/The level of expressed mRNA in the absence of chemical substance” value (yeast gene YHL036W) was 4.4. For the same compound, the “The level of expressed mRNA in the presence of chemical substance/The level of expressed mRNA in the absence of chemical substance” value (yeast gene YHL040C) was 11.3, the “The level of expressed mRNA in the presence of chemical substance/The level of expressed mRNA in the absence of chemical substance” value (yeast gene YHL047C) was 11.9 and the “The level of expressed mRNA in the presence of chemical substance/The level of expressed mRNA in the absence of chemical substance” value (yeast gene YHR026W) was 0.9. The “The level of expressed mRNA in the presence of chemical substance/The level of expressed mRNA in the absence of chemical substance” value (yeast gene YHR092C) was 0.9, the “The level of expressed mRNA in the presence of chemical substance/The level of expressed mRNA in the absence of chemical substance” value (yeast gene YHR094C) was 1.2 and the “The level of expressed mRNA in the presence of chemical substance/The level of expressed mRNA in the absence of chemical substance” value (yeast gene YHR175W) was 2.0. The “The level of expressed mRNA in the presence of chemical substance/The level of expressed mRNA in the absence of chemical substance” value (yeast gene YIL006W) was 1.1, the “The level of expressed mRNA in the presence of chemical substance/The level of expressed mRNA in the absence of chemical substance” value (yeast gene YIL022W) was 1.3 and the “The level of expressed mRNA in the presence of chemical substance/The level of expressed mRNA in the absence of chemical substance” value (yeast gene YIL056W) was 1.6. The “The level of expressed mRNA in the presence of chemical substance/The level of expressed mRNA in the absence of chemical substance” value (yeast gene YIL088C) was 1.7, the “The level of expressed mRNA in the presence of chemical substance/The level of expressed mRNA in the absence of chemical substance” value (yeast gene YJL034W) was 1.1 and the “The level of expressed mRNA in the presence of chemical substance/The level of expressed mRNA in the absence of chemical substance” value (yeast gene YJL212C) was 1.3. The “The level of expressed mRNA in the presence of chemical substance/The level of expressed mRNA in the absence of chemical substance” value (yeast gene YJL219W) was 2.3, the “The level of expressed mRNA in the presence of chemical substance/The level of expressed mRNA in the absence of chemical substance” value (yeast gene YJR077C) was 0.7 and the “The level of expressed mRNA in the presence of chemical substance/The level of expressed mRNA in the absence of chemical substance” value (yeast gene YJR106W) was 1.6. For the same compound, the “The level of expressed mRNA in the presence of chemical substance/The level of expressed mRNA in the absence of chemical substance” value (yeast gene YJR121W) was 1.3, the “The level of expressed mRNA in the presence of chemical substance/The level of expressed mRNA in the absence of chemical substance” value (yeast gene YKL016C) was 1.8 and the “The level of expressed mRNA in the presence of chemical substance/The level of expressed mRNA in the absence of chemical substance” value (yeast gene YKL146W) was 2.8. The “The level of expressed mRNA in the presence of chemical substance/The level of expressed mRNA in the absence of chemical substance” value (yeast gene YKL188C) was 2.8, the “The level of expressed mRNA in the presence of chemical substance/The level of expressed mRNA in the absence of chemical substance” value (yeast gene YKR039W) was 2.0 and the “The level of expressed mRNA in the presence of chemical substance/The level of expressed mRNA in the absence of chemical substance” value (yeast gene YKR067W) was 2.3. The “The level of expressed mRNA in the presence of chemical substance/The level of expressed mRNA in the absence of chemical substance” value (yeast gene YLL028W) was 2.3, the “The level of expressed mRNA in the presence of chemical substance/The level of expressed mRNA in the absence of chemical substance” value (yeast gene YLL055W) was 14.0 and the “The level of expressed mRNA in the presence of chemical substance/The level of expressed mRNA in the absence of chemical substance” value (yeast gene YLR081W) was 2.2. For the same compound, the “The level of expressed mRNA in the presence of chemical substance/The level of expressed mRNA in the absence of chemical substance” value (yeast gene YLR295C) was 1.2, the “The level of expressed mRNA in the presence of chemical substance/The level of expressed mRNA in the absence of chemical substance” value (yeast gene YLR348C) was 1.3 and the “The level of expressed mRNA in the presence of chemical substance/The level of expressed mRNA in the absence of chemical substance” value (yeast gene YLR378C) was 0.7. For the same compound, the “The level of expressed mRNA in the presence of chemical substance/The level of expressed mRNA in the absence of chemical substance” value (yeast gene YMR011W) was 0.7, the “The level of expressed mRNA in the presence of chemical substance/The level of expressed mRNA in the absence of chemical substance” value (yeast gene YMR058W) was 1.4 and the “The level of expressed mRNA in the presence of chemical substance/The level of expressed mRNA in the absence of chemical substance” value (yeast gene YMR162C) was 1.0. The “The level of expressed mRNA in the presence of chemical substance/The level of expressed mRNA in the absence of chemical substance” value (yeast gene YMR203W) was 1.2, the “The level of expressed mRNA in the presence of chemical substance/The level of expressed mRNA in the absence of chemical substance” value (yeast gene YNL055C) was 1.0 and the “The level of expressed mRNA in the presence of chemical substance/The level of expressed mRNA in the absence of chemical substance” value (yeast gene YNL259C) was 2.1. The “The level of expressed mRNA in the presence of chemical substance/The level of expressed mRNA in the absence of chemical substance” value (yeast gene YNR072W) was 1.8, the “The level of expressed mRNA in the presence of chemical substance/The level of expressed mRNA in the absence of chemical substance” value (yeast gene YOL119C) was 7.4 and the “The level of expressed mRNA in the presence of chemical substance/The level of expressed mRNA in the absence of chemical substance” value (yeast gene YOL156W) was 2.1. The “The level of expressed mRNA in the presence of chemical substance/The level of expressed mRNA in the absence of chemical substance” value (yeast gene YOL163W) was 6.2, the “The level of expressed mRNA in the presence of chemical substance/The level of expressed mRNA in the absence of chemical substance” value (yeast gene YOR035C) was 1.7 and the “The level of expressed mRNA in the presence of chemical substance/The level of expressed mRNA in the absence of chemical substance” value (yeast gene YOR130C) was 1.7. The “The level of expressed mRNA in the presence of chemical substance/The level of expressed mRNA in the absence of chemical substance” value (yeast gene YOR153W) was 1.2, the “The level of expressed mRNA in the presence of chemical substance/The level of expressed mRNA in the absence of chemical substance” value (yeast gene YOR270C) was 0.9 and the “The level of expressed mRNA in the presence of chemical substance/The level of expressed mRNA in the absence of chemical substance” value (yeast gene YOR273C) was 0.5. For the same compound, the “The level of expressed mRNA in the presence of chemical substance/The level of expressed mRNA in the absence of chemical substance” value (yeast gene YOR316C) was 2.0, the “The level of expressed mRNA in the presence of chemical substance/The level of expressed mRNA in the absence of chemical substance” value (yeast gene YOR332W) was 1.1 and the “The level of expressed mRNA in the presence of chemical substance/The level of expressed mRNA in the absence of chemical substance” value (yeast gene YOR348C) was 0.4. The “The level of expressed mRNA in the presence of chemical substance/The level of expressed mRNA in the absence of chemical substance” value (yeast gene YPL036W) was 0.3, the “The level of expressed mRNA in the presence of chemical substance/The level of expressed mRNA in the absence of chemical substance” value (yeast gene YPL134C) was 0.8 and the “The level of expressed mRNA in the presence of chemical substance/The level of expressed mRNA in the absence of chemical substance” value (yeast gene YPL265W) was 1.2. For the same compound, the “The level of expressed mRNA in the presence of chemical substance/The level of expressed mRNA in the absence of chemical substance” value (yeast gene YPL271W) was 1.2, the “The level of expressed mRNA in the presence of chemical substance/The level of expressed mRNA in the absence of chemical substance” value (yeast gene YPR124W) was 1.5 and the “The level of expressed mRNA in the presence of chemical substance/The level of expressed mRNA in the absence of chemical substance” value (yeast gene YPR192W) was 1.3. The “The level of expressed mRNA in the presence of chemical substance/The level of expressed mRNA in the absence of chemical substance” value (yeast gene YPR194C) was 0.6.
